Patent US20260215428A1, “WEED CONTROL METHOD” (SYNGENTA CROP PROTECTION AG, priority 2023, published 2026)

Legend:
Format in all cases: in vivo
Digitaria sanguinalis = assay: Glasshouse post-emergence test, visual damage, Table B1-4; settings: 14 days after application
Protocol: (§1) Seeds of a variety of test species are sown in standard soil in pots. For each treatment, three replicate pots containing 10-15 plants per one-inch pot were sprayed at the 2-3 leaf stage. Clethodim and Compound (Ic) were each applied at 15, 30, 60 and 120 g ai/ha. The test plants are then grown in a glasshouse under controlled conditions in a glasshouse (at 24/16° C., day/night; 14 hours light; 65% humidity) and watered twice daily. Plants were assessed for visual damage compared to the untreated control 14 days after application (0=0% damage; 100=100% damage).

Eleusine indica = assay: Glasshouse post-emergence test, visual damage, Tables B1-2 and B1-3; settings: 14 days after application
Protocol: as §1, with “Clethodim and Compound (Ic) were each applied at 15, 30, 60 and 120 g ai/ha.” left out

Volunteer corn = assay: 26 field trials, control of volunteer corn, Table B1-6; settings: 100 g/ha
Lolium multiflorum = assay: Further glasshouse test versus other ACCase-inhibiting herbicides, Table B2-1; settings: 21 days after application
Description: Further tests were employed to test the efficacy of a compound of Formula I versus other ACCase-inhibiting herbicides. The five main targets were Lolium multiflorum, Eleusine indica, Digitaria insularis, Sorghum halepense and Echinochloa crus-galli. Collectively, the populations contained all the major target-site resistance mutations affecting ACCase herbicides. Two L. multiflorum (LM-NTSR-1 and LM-NTSR-2) and one E. crus-galli (ECG-NTSR-1) populations were characterised exclusively by non-target-site resistance (“NTSR”). The target-site resistant L. multiflorum and E. indication populations were 100% homozygous for different ACCase mutations whilst the D. insularis, S. halepense and E. crus-galli samples contained a mixture of homozygous wild and mutant individuals at different genotypic frequencies. Additional underlying NTSR cannot be ruled out in the populations characterised by target-site resistance.
Around 50 seeds of each of the 24 weed populations were sown in 12-cm pots containing a mixture of peat and compost in a 1:1 ratio. The pots were watered, fertilised and kept in controlled glasshouse conditions set at 24° C./16 hr day, 18° C. night, 65% relative humidity, and a photon flux density of approximately 250 μmol quanta m^−2 s^−1 for Lolium multiflorum. The E. indica, D. insularis, S. halepense and E. crus-galli plants were kept in a separate glasshouse bay characterised by a 17 H photoperiod of 180 μmol m^−2 s^−1 with temperatures of 25° C. day and 19° C. night and 65% relative humidity. When the plants were at the two to four-leaf stage, they were treated with the various ACCase-inhibiting herbicides at 0, 15, 30, 60, 120 and 240 g ai ha^−1 in a spray cabinet mounted with a single mobile Teejet flat fan nozzle (11002VS) calibrated to deliver 200 L ha^−1 at 200 kPa. The L. multiflorum populations were treated by a compound of Formula Ic, clodinafop-propargyl, pinoxaden, cycloxydim and clethodim and the warm season grass weeds E. indica, D. insularis, S. halepense and E. crus-galli were sprayed with a Compound Ic and the commonly employed haloxyfop-methyl and clethodim. Three replicate pots were used per population. Plants were assessed for visual damage compared to the untreated control 21 days after application (0=0% damage; 100=100% damage).

CCSC(C)CC1CC(=O)C(/C(CC)=N/OC/C=C/Cl)=C(O)C1 (centres unmarked) [Clethodim, clethodim]
visual damage (Digitaria sanguinalis; biotype I1781L (heterozygous), 15 g/ha): 20%
visual damage (Digitaria sanguinalis; biotype I1781L (heterozygous), 30 g/ha): 20%
visual damage (Digitaria sanguinalis; biotype I1781L (heterozygous), 60 g/ha): 53%
visual damage (Digitaria sanguinalis; biotype I1781L (heterozygous), 120 g/ha): 67%
visual damage (Digitaria sanguinalis; biotype Sensitive, 15 g/ha): 87%
visual damage (Digitaria sanguinalis; biotype Sensitive, 30 g/ha): 90%
visual damage (Digitaria sanguinalis; biotype Sensitive, 60 g/ha): 100%
visual damage (Digitaria sanguinalis; biotype Sensitive, 120 g/ha): 100%
visual damage (Eleusine indica; Table B1-2, biotype 87% I1781L (heterozygous), 15 g/ha): 80%
visual damage (Eleusine indica; Table B1-2, biotype 87% I1781L (heterozygous), 30 g/ha): 77%
visual damage (Eleusine indica; Table B1-2, biotype 87% I1781L (heterozygous), 60 g/ha): 100%
visual damage (Eleusine indica; Table B1-2, biotype 87% I1781L (heterozygous), 120 g/ha): 100%
visual damage (Eleusine indica; Table B1-2, biotype D2078G + W2027C (heterozygous), first entry, 15 g/ha): 50%
visual damage (Eleusine indica; Table B1-2, biotype D2078G + W2027C (heterozygous), first entry, 30 g/ha): 60%
visual damage (Eleusine indica; Table B1-2, biotype D2078G + W2027C (heterozygous), first entry, 60 g/ha): 70%
visual damage (Eleusine indica; Table B1-2, biotype D2078G + W2027C (heterozygous), first entry, 120 g/ha): 80%
visual damage (Eleusine indica; Table B1-2, biotype D2078G + W2027C (heterozygous), second entry, 15 g/ha): 63%
visual damage (Eleusine indica; Table B1-2, biotype D2078G + W2027C (heterozygous), second entry, 30 g/ha): 67%
visual damage (Eleusine indica; Table B1-2, biotype D2078G + W2027C (heterozygous), second entry, 60 g/ha): 93%
visual damage (Eleusine indica; Table B1-2, biotype D2078G + W2027C (heterozygous), second entry, 120 g/ha): 100%
visual damage (Eleusine indica; Table B1-2, biotype I2041N (heterozygous), 15 g/ha): 82%
visual damage (Eleusine indica; Table B1-2, biotype I2041N (heterozygous), 30 g/ha): 100%
visual damage (Eleusine indica; Table B1-2, biotype I2041N (heterozygous), 60 g/ha): 100%
visual damage (Eleusine indica; Table B1-2, biotype I2041N (heterozygous), 120 g/ha): 100%
visual damage (Eleusine indica; Table B1-2, biotype NTSR (non-target site resistance), 1 g/ha): 0%
visual damage (Eleusine indica; Table B1-2, biotype NTSR (non-target site resistance), 2 g/ha): 33%
visual damage (Eleusine indica; Table B1-2, biotype NTSR (non-target site resistance), 4 g/ha): 43%
visual damage (Eleusine indica; Table B1-2, biotype NTSR (non-target site resistance), 8 g/ha): 77%
visual damage (Eleusine indica; Table B1-2, biotype Sensitive, 15 g/ha): 87%
visual damage (Eleusine indica; Table B1-2, biotype Sensitive, 30 g/ha): 100%
visual damage (Eleusine indica; Table B1-2, biotype Sensitive, 60 g/ha): 100%
visual damage (Eleusine indica; Table B1-2, biotype Sensitive, 120 g/ha): 100%
visual damage (Eleusine indica; Table B1-3, Pop1 (mix of sensitive, D2078G and G2096A biotypes), 15 g/ha): 10%
visual damage (Eleusine indica; Table B1-3, Pop1 (mix of sensitive, D2078G and G2096A biotypes), 30 g/ha): 33%
visual damage (Eleusine indica; Table B1-3, Pop1 (mix of sensitive, D2078G and G2096A biotypes), 60 g/ha): 47%
visual damage (Eleusine indica; Table B1-3, Pop1 (mix of sensitive, D2078G and G2096A biotypes), 120 g/ha): 63%
visual damage (Eleusine indica; Table B1-3, Pop2 (mix of sensitive, D2078G and G2096A biotypes), 15 g/ha): 10%
visual damage (Eleusine indica; Table B1-3, Pop2 (mix of sensitive, D2078G and G2096A biotypes), 30 g/ha): 33%
visual damage (Eleusine indica; Table B1-3, Pop2 (mix of sensitive, D2078G and G2096A biotypes), 60 g/ha): 76%
visual damage (Eleusine indica; Table B1-3, Pop2 (mix of sensitive, D2078G and G2096A biotypes), 120 g/ha): 77%
visual damage (Eleusine indica; Table B1-3, biotype Sensitive, 15 g/ha): 100%
visual damage (Eleusine indica; Table B1-3, biotype Sensitive, 30 g/ha): 100%
visual damage (Eleusine indica; Table B1-3, biotype Sensitive, 60 g/ha): 100%
visual damage (Eleusine indica; Table B1-3, biotype Sensitive, 120 g/ha): 100%
Control (14d) (Volunteer corn; 14d): 90%
Control (28d) (Volunteer corn; 28d): 96%
visual damage (Lolium multiflorum; biotype C2088R, 15 g/ha): 0%
visual damage (Lolium multiflorum; biotype C2088R, 30 g/ha): 13%
visual damage (Lolium multiflorum; biotype C2088R, 60 g/ha): 40%
visual damage (Lolium multiflorum; biotype C2088R, 120 g/ha): 90%
visual damage (Lolium multiflorum; biotype C2088R, 240 g/ha): 100%
visual damage (Lolium multiflorum; biotype D2078G, 15 g/ha): 10%
visual damage (Lolium multiflorum; biotype D2078G, 30 g/ha): 17%
visual damage (Lolium multiflorum; biotype D2078G, 60 g/ha): 27%
visual damage (Lolium multiflorum; biotype D2078G, 120 g/ha): 70%
visual damage (Lolium multiflorum; biotype D2078G, 240 g/ha): 100%
visual damage (Lolium multiflorum; biotype I1781L, 15 g/ha): 23%
visual damage (Lolium multiflorum; biotype I1781L, 30 g/ha): 53%
visual damage (Lolium multiflorum; biotype I1781L, 60 g/ha): 70%
visual damage (Lolium multiflorum; biotype I1781L, 120 g/ha): 100%
visual damage (Lolium multiflorum; biotype I1781L, 240 g/ha): 100%
visual damage (Lolium multiflorum; biotype Sensitive, 15 g/ha): 100%
visual damage (Lolium multiflorum; biotype Sensitive, 30 g/ha): 100%
visual damage (Lolium multiflorum; biotype Sensitive, 60 g/ha): 100%
visual damage (Lolium multiflorum; biotype Sensitive, 120 g/ha): 100%
visual damage (Lolium multiflorum; biotype Sensitive, 240 g/ha): 100%
visual damage (Lolium multiflorum; biotype W1999S, 15 g/ha): 27%
visual damage (Lolium multiflorum; biotype W1999S, 30 g/ha): 98%
visual damage (Lolium multiflorum; biotype W1999S, 60 g/ha): 100%
visual damage (Lolium multiflorum; biotype W1999S, 120 g/ha): 100%
visual damage (Lolium multiflorum; biotype W1999S, 240 g/ha): 100%
visual damage (Lolium multiflorum; biotype W2027C, 15 g/ha): 63%
visual damage (Lolium multiflorum; biotype W2027C, 30 g/ha): 100%
visual damage (Lolium multiflorum; biotype W2027C, 60 g/ha): 100%
visual damage (Lolium multiflorum; biotype W2027C, 120 g/ha): 100%
visual damage (Lolium multiflorum; biotype W2027C, 240 g/ha): 100%
visual damage (Lolium multiflorum; population LM-NTSR-1 (non-target-site resistance), 15 g/ha): 63%
visual damage (Lolium multiflorum; population LM-NTSR-1 (non-target-site resistance), 30 g/ha): 97%
visual damage (Lolium multiflorum; population LM-NTSR-1 (non-target-site resistance), 60 g/ha): 100%
visual damage (Lolium multiflorum; population LM-NTSR-1 (non-target-site resistance), 120 g/ha): 100%
visual damage (Lolium multiflorum; population LM-NTSR-1 (non-target-site resistance), 240 g/ha): 100%
visual damage (Lolium multiflorum; population LM-NTSR-2 (non-target-site resistance), 15 g/ha): 3%
visual damage (Lolium multiflorum; population LM-NTSR-2 (non-target-site resistance), 30 g/ha): 55%
visual damage (Lolium multiflorum; population LM-NTSR-2 (non-target-site resistance), 60 g/ha): 70%
visual damage (Lolium multiflorum; population LM-NTSR-2 (non-target-site resistance), 120 g/ha): 75%
visual damage (Lolium multiflorum; population LM-NTSR-2 (non-target-site resistance), 240 g/ha): 95%
